In the data set the test system is rodent carcinogenicity bioassays, tumor incidence. The data set can be described thus: CCRIS carcinogenicity studies. The following applies: Dose: 0. In short, it runs like this:
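Archive of carcinogenicity, mutagenicity, tumor promotion and tumor inhibition results drawn from journals, NCI reports and other sources, expert-reviewed; covers 1985-2011 and is no longer updated.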

Active and inactive are the calls of the source. No rule for the calls is given here.

In the case of `Cc1nc(N)cc2[nH]c3ccccc3c12`, the carcinogen call is, setting by setting: (Species: MOUSE, Strain/Sex: CDF1/FEMALE, Route: ORAL, 200 PPM IN DIET FOR 621 D, Tumor Site: Type of Lesion: LIVER: HEPATOCELLULAR CARCINOMA) “active; positive”; (Species: MOUSE, Strain/Sex: DDY/FEMALE, Route: BLADDER IMPLANT, 5% IN PARAFFIN PELLET (STUDY DURATION: 40 WK), Tumor Site: Type of Lesion: URINARY BLADDER: TRANSITIONAL CELL CARCINOMA) “active; positive”; (Species: RAT, Strain/Sex: F344/FEMALE, Route: ORAL, 30, 100 PPM IN DIET FOR 112 WK (STUDY DURATION: 112 WK), 30, 100 PPM IN DIET FOR 112 WK (STUDY DURATION: 112 WK), Tumor Site: Type of Lesion: MAMMARY GLAND: FIBROADENOMA OR FIBROMA, HEMATOPOIETIC SYSTEM: MALIGNANT LYMPHOMA, CLITORAL GLAND: ADENOMA, Tumor Site: Type of Lesion: MAMMARY GLAND: FIBROADENOMA OR FIBROMA, HEMATOPOIETIC SYSTEM: MALIGNANT LYMPHOMA, CLITORAL GLAND: ADENOMA) “active; positive”; (Species: RAT, Strain/Sex: F344/MALE, Route: ORAL, 30, 100 PPM IN DIET FOR 112 WK (STUDY DURATION: 112 WK), 30, 100 PPM IN DIET FOR 112 WK (STUDY DURATION: 112 WK), Tumor Site: Type of Lesion: LIVER: HEPATOCELLULAR ADENOMA, URINARY BLADDER: TRANSITIONAL CELL PAPILLOMA, MAMMARY GLAND: FIBROADENOMA OR FIBROMA, Tumor Site: Type of Lesion: LIVER: HEPATOCELLULAR ADENOMA, URINARY BLADDER: TRANSITIONAL CELL PAPILLOMA, MAMMARY GLAND: FIBROADENOMA OR FIBROMA) “active; positive”.

As to `C[CH2][Pb]([CH2]C)([CH2]C)[CH2]C`, the carcinogen call is, setting by setting: (Species: MOUSE, Strain/Sex: ICR/FEMALE, Route: SUBCUTANEOUS, 0.1 MG IN TRICAPRYLIN AT DAYS 1 AND 7 OF AGE AND 0, 0.2 MG AT DAYS 14 AND 21 OF AGE FOR A TOTAL DOSE OF 0, 0.6 MG (ST, 0.1 MG IN TRICAPRYLIN AT DAYS 1 AND 7 OF AGE AND 0, 0.2 MG AT DAYS 14 AND 21 OF AGE FOR A TOTAL DOSE OF 0, 0.6 MG (ST, Tumor Site: Type of Lesion: HEMATOPOIETIC SYSTEM: LYMPHOMA) “active; positive”; (Species: MOUSE, Strain/Sex: ICR/MALE, Route: SUBCUTANEOUS, 0.1 MG IN TRICAPRYLIN ON DAYS 1 AND 7 OF AGE AND 0, 0.2 MG ON DAYS 14 AND 21 OF AGE FOR A TOTAL DOSE OF 0, 0.6 MG (ST, 0.1 MG IN TRICAPRYLIN ON DAYS 1 AND 7 OF AGE AND 0, 0.2 MG ON DAYS 14 AND 21 OF AGE FOR A TOTAL DOSE OF 0, 0.6 MG (ST) “inactive; negative”.
